Reference: patent publication US6803457B1, “Compounds for the treatment of ischemia” (Pfizer, Inc., priority 1999, dated 2004)

melting point: 85 to 90 °C
Structure (SMILES): CNC(=O)[C@H]1O[C@@H](n2cnc3c(NCc4cc(Cl)ccc4OCc4cccc(Cl)c4)ncnc32)[C@H](O)[C@@H]1N [Example 8, (2S,3S,4R,5R)3-Amino-5-{6-[5-chloro-2-(3-chloro-benzyloxy)-benzylamino]-purin-9-yl}-4-hydroxytetrahydrofuran-2-carboxylic acid methylamide]
